Our source for the mutagenic call values is PubChem BioAssay AID1259407 (Chemical Carcinogenesis Research Information System (CCRIS), 2018).

Calls of active or inactive are those of the source. How the calls were made is not given here.

The test system of the data set is CCRIS mutagenicity, Ames/micronucleus/aberration tests. As to the kind of experiment: CCRIS mutagenicity studies.
[1] abbreviates: Test System: AMES SALMONELLA TYPHIMURIUM, Strain/Indicator: TA98, Metabolic Activation: NONE, Method: STANDARD PLATE.
The mark [2] stands for this setting: Test System: AMES SALMONELLA TYPHIMURIUM, Strain/Indicator: TA98, Metabolic Activation: RAT, LIVER, S-9, AROCLOR 1254, Method: STANDARD PLATE.
[3] abbreviates: Test System: AMES SALMONELLA TYPHIMURIUM, Strain/Indicator: TA100, Metabolic Activation: NONE, Method: STANDARD PLATE.
The mark [4] stands for this setting: Test System: AMES SALMONELLA TYPHIMURIUM, Strain/Indicator: TA100, Metabolic Activation: RAT, LIVER, S-9, AROCLOR 1254, Method: STANDARD PLATE.

In the case of `Nc1ccc2ccccc2c1`, the mutagenic call is, setting by setting: (Test System: AMES SALMONELLA TYPHIMURIUM, Strain/Indicator: TA98(1,8-DNP6), Metabolic Activation: PLANT CELLS, Method: PREINCUBATION) “inactive; negative”; (Test System: AMES SALMONELLA TYPHIMURIUM, Strain/Indicator: TA98, Metabolic Activation: HAMSTER, LIVER, S-9, AROCLOR 1254 (30%), Method: PREINCUBATION) “active; positive”; (Test System: AMES SALMONELLA TYPHIMURIUM, Strain/Indicator: TA98, Metabolic Activation: HUMAN, RED BLOOD CELL, CYTOSOL, Method: PREINCUBATION) “active; positive”; (Test System: AMES SALMONELLA TYPHIMURIUM, Strain/Indicator: TA98, Metabolic Activation: MOUSE, LIVER, S-9, PHENOBARBITAL AND BETA-NAPHTHOFLAVONE, Method: STANDARD PLATE) “active; positive”; (Test System: AMES SALMONELLA TYPHIMURIUM, Strain/Indicator: TA98, Metabolic Activation: MOUSE, LIVER, S-9, PHENOBARBITAL, BETA-NAPHTHOFLAVONE, ISOSAFROLE, ETHANOL, PREGNENOLONE AND 16ALPHA-CARBONITRILE, Method: STANDARD PLATE) “active; positive”; (Test System: AMES SALMONELLA TYPHIMURIUM, Strain/Indicator: TA98, Metabolic Activation: NONE, Method: PREINCUBATION) “inactive; negative”. The mutagenic call reads like this: under setting [1], “inactive; negative”; (Test System: AMES SALMONELLA TYPHIMURIUM, Strain/Indicator: TA98, Metabolic Activation: PLANT CELLS, Method: PREINCUBATION) “inactive; negative”; (Test System: AMES SALMONELLA TYPHIMURIUM, Strain/Indicator: TA98, Metabolic Activation: RAT, LIVER, S-9, AROCLOR 1254 (2%), Method: STANDARD PLATE) “active; positive”; (Test System: AMES SALMONELLA TYPHIMURIUM, Strain/Indicator: TA98, Metabolic Activation: RAT, LIVER, S-9, AROCLOR 1254 (30%), Method: PREINCUBATION) “active; positive”; under setting [2], “inactive; negative”; (Test System: AMES SALMONELLA TYPHIMURIUM, Strain/Indicator: TA98, Metabolic Activation: RAT, LIVER, S-9, KANECHLOR 500 OR PHENOBARBITAL AND BETA-NAPHTHOFLAVONE, Method: PREINCUBATION) “active; positive”. Besides, the mutagenic call is “active; positive” (Test System: AMES SALMONELLA TYPHIMURIUM, Strain/Indicator: TA100, Metabolic Activation: HAMSTER, LIVER, S-9, AROCLOR 1254 (30%), Method: PREINCUBATION); “inactive; negative” (Test System: AMES SALMONELLA TYPHIMURIUM, Strain/Indicator: TA100, Metabolic Activation: NONE, Method: PREINCUBATION); “inactive; negative” under setting [3]; “inactive; negative” (Test System: AMES SALMONELLA TYPHIMURIUM, Strain/Indicator: TA100, Metabolic Activation: RAT, LIVER, S-9, AROCLOR 1254 (10%) (WITHOUT ADDED COFACTORS), Method: STANDARD PLATE); “active; positive” (Test System: AMES SALMONELLA TYPHIMURIUM, Strain/Indicator: TA100, Metabolic Activation: RAT, LIVER, S-9, AROCLOR 1254 (30%), Method: PREINCUBATION); “active; positive” under setting [4]. Moreover, the mutagenic call reads like this: (Test System: AMES SALMONELLA TYPHIMURIUM, Strain/Indicator: TA100, Metabolic Activation: RAT, LIVER, S-9, AROCLOR (10%), Method: STANDARD PLATE) “active; positive”; (Test System: AMES SALMONELLA TYPHIMURIUM, Strain/Indicator: TA100, Metabolic Activation: RAT, LIVER, S-9, KANECHLOR 500 OR PHENOBARBITAL AND BETA-NAPHTHOFLAVONE, Method: PREINCUBATION) “active; positive”; (Test System: AMES SALMONELLA TYPHIMURIUM, Strain/Indicator: TA100, Metabolic Activation: RAT, LIVER, S-9, KC500 OR PHENOBARBITAL, Method: LIQUID SUSPENSION) “active; positive”; (Test System: AMES SALMONELLA TYPHIMURIUM, Strain/Indicator: TA100, Metabolic Activation: RAT, LIVER, S-9, TCDD, Method: STANDARD PLATE) “active; positive”; (Test System: AMES SALMONELLA TYPHIMURIUM, Strain/Indicator: TA100, Metabolic Activation: S-9, Method: FLUCTUATION TEST) “active; positive”; (Test System: AMES SALMONELLA TYPHIMURIUM, Strain/Indicator: TA1535, Metabolic Activation: RAT, LIVER, S-9, AROCLOR 1254, Method: STANDARD PLATE) “active; positive”. The mutagenic call runs as follows: (Test System: AMES SALMONELLA TYPHIMURIUM, Strain/Indicator: TA1535, Metabolic Activation: RAT, LIVER, S-9, AROCLOR (10%), Method: STANDARD PLATE) “active; positive”; (Test System: AMES SALMONELLA TYPHIMURIUM, Strain/Indicator: TA1535, Metabolic Activation: RAT, LIVER, S-9, PHENOBARBITAL, Method: STANDARD PLATE) “active; positive”; (Test System: AMES SALMONELLA TYPHIMURIUM, Strain/Indicator: YG1024, Metabolic Activation: PLANT CELLS, Method: PREINCUBATION) “inactive; negative”; (Test System: CHINESE HAMSTER V-79, Strain/Indicator: V-79/6-THIOGUANINE, Metabolic Activation: NONE, Method: SUSPENSION/PLATE) “inactive; negative”; (Test System: CHINESE HAMSTER V-79, Strain/Indicator: V-79/6-THIOGUANINE, Metabolic Activation: RAT, LIVER, S-9, PHENOBARBITAL AND BETA-NAPHTHOFLAVONE, Method: SUSPENSION/PLATE) “active; positive”; (Test System: E. COLI, Strain/Indicator: WP2 UVRA, Metabolic Activation: HAMSTER, LIVER, S-9, AROCLOR 1254, Method: STANDARD PLATE) “inactive; negative”. The mutagenic call (Test System: E. COLI, Strain/Indicator: WP2 UVRA, Metabolic Activation: HAMSTER, LIVER, S-9, Method: STANDARD PLATE) was “inactive; negative”; the mutagenic call (Test System: E. COLI, Strain/Indicator: WP2 UVRA, Metabolic Activation: MOUSE, LIVER, S-9, AROCLOR 1254, Method: STANDARD PLATE) was “inactive; negative”; the mutagenic call (Test System: E. COLI, Strain/Indicator: WP2 UVRA, Metabolic Activation: MOUSE, LIVER, S-9, Method: STANDARD PLATE) was “inactive; negative”; the mutagenic call (Test System: E. COLI, Strain/Indicator: WP2 UVRA, Metabolic Activation: NONE, Method: STANDARD PLATE) is “inactive; negative”; the mutagenic call (Test System: E. COLI, Strain/Indicator: WP2 UVRA, Metabolic Activation: RAT, LIVER, S-9, AROCLOR 1254, Method: STANDARD PLATE) was “inactive; negative”; the mutagenic call (Test System: E. COLI, Strain/Indicator: WP2 UVRA, Metabolic Activation: RAT, LIVER, S-9, Method: STANDARD PLATE) was “inactive; negative”.

Turning to `CN(C)CCNC(=O)c1cccc2ncc(-c3ccccc3)nc12`, for the setting “Test System: AMES SALMONELLA TYPHIMURIUM, Strain/Indicator: TA1537, Metabolic Activation: NONE, Method: STANDARD PLATE”, the mutagenic call was “active; positive”.

As to `CC(OP(=O)(OC(C)C(Br)CBr)OC(C)C(Br)CBr)C(Br)CBr` (stereo not drawn), the mutagenic call (Test System: AMES SALMONELLA TYPHIMURIUM, Strain/Indicator: TA100, Metabolic Activation: RAT, LIVER, MICROSOMES, PHENOBARBITAL, Method: PREINCUBATION) was “active; positive” and the mutagenic call (Test System: AMES SALMONELLA TYPHIMURIUM, Strain/Indicator: TA100, Metabolic Activation: RAT, LIVER, MICROSOMES, Method: PREINCUBATION) is “active; positive”.

`O[C@@H]1C=Cc2ccc3c(ccc4ccccc43)c2[C@H]1O`: the mutagenic call under setting [1] is “inactive; negative”, the mutagenic call under setting [2] is “active; positive”, the mutagenic call under setting [3] was “inactive; negative” and the mutagenic call under setting [4] was “active; positive”.

For `Cc1cc(N)sn1`, the mutagenic call was “active; positive” (Test System: AMES SALMONELLA TYPHIMURIUM, Strain/Indicator: TA102, Metabolic Activation: RAT, LIVER, S-9, AROCLOR 1254, HAMSTER, LIVER, S-9, AROCLOR 1254, Method: PREINCUBATION); “active; positive” (Test System: AMES SALMONELLA TYPHIMURIUM, Strain/Indicator: TA1538, Metabolic Activation: HAMSTER, LIVER, S-9, AROCLOR 1254 (5, 10%), Method: STANDARD PLATE); “active; positive” (Test System: AMES SALMONELLA TYPHIMURIUM, Strain/Indicator: TA1538, Metabolic Activation: HAMSTER, LIVER, S-9, AROCLOR 1254, Method: STANDARD PLATE); “active; positive. reevaluation of results: inconclusive” (Test System: MOUSE LYMPHOMA, Strain/Indicator: L5178Y (TK+/TK-), Metabolic Activation: NONE, Method: SUSPENSION/PLATE); “active; positive. reevaluation of results: equivocal” (Test System: MOUSE LYMPHOMA, Strain/Indicator: L5178Y (TK+/TK-), Metabolic Activation: RAT, LIVER, S-9, AROCLOR 1254, Method: SUSPENSION/PLATE).
